Literature values in patent publication US7495029B2, “Prodrugs of (2R)-2-propyloctanoic acid for the treatment of stroke” (Merck & Co., Inc, priority 2004, dated 2009).

Legend:
[1] = system: gerbils subjected to a transient global ischemia event; settings: Jalil et al, Brain Research 2002
[2] = system: mice; settings: Tunctan et al, Pharmacological Res 2003
[3] = system: vascular endothelial cell; settings: in vitro; Kogure et al, Life Sciences 2002
[4] = system: rat stroke models; settings: Kogure et al, Life Sciences 2002
[5] = system: lipid peroxidation; settings: in vitro; Kogure et al, Life Sciences 2002

Compound	neuroprotection against hippocampal damage [1]	endotoxin-induced mortality [2]	vascular endothelial cell damage [3]	development of cerebral edema, cerebral infarction, neurological symptoms and delayed neuronal death [4]	lipid peroxidation [5]
CC1(C)OC(=O)C(c2cccc(F)c2)=C1c1ccc(S(C)(=O)=O)cc1 [DFU]	neuroprotective against hippocampal damage	dose dependently reduce endotoxin-induced mortality			
Edaravone			inhibit	inhibit the development of cerebral edema, cerebral infarction, neurological symptoms and delayed neuronal death	inhibit lipid peroxidation
